Experimental data: patent US20120270929A1, “MODULATION OF TTC39 EXPRESSION TO INCREASE HDL” (ISIS Pharmaceuticals, Inc., priority 2009, published 2012)
Oligonucleotides are written 5' to 3', each unit as a sugar letter and its base; * is a phosphorothioate linkage, no mark a phosphodiester; rarer units and linkages stand in square brackets, end groups in braces. Plain capitals give the bases only. e = 2'-O-(2-methoxyethyl) (MOE); [5mC] = 5-methylcytosine; d = 2'-deoxy (DNA)

Experiments:
murine TTC39B mRNA [1] = experiment: Antisense inhibition of murine TTC39B in mouse primary hepatocytes, single dose; assay type: cell-based; details: 100 nM, cytofectin, ~24 h, vs untreated control; gapmers targeted to SEQ ID NO: 6
Method in brief: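 Mouse primary hepatocytes transfected by cytofectin with 100 nM 5-10-5 MOE gapmer (20-mer, phosphorothioate, 5-methylcytosine) for ~24 h. TTC39B mRNA quantified by real-time qPCR, normalized to RIBOGREEN total RNA. Values given as percent inhibition versus untreated cells.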

murine TTC39B mRNA [2] = experiment: Dose-dependent antisense inhibition of murine TTC39B in mouse primary hepatocytes (Example 2); assay type: cell-based; details: cytofectin, ~16 h
Method in brief: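 Mouse primary hepatocytes (10,000/well) transfected via cytofectin with 25, 50, 100 or 200 nM antisense oligonucleotide for about 16 h. TTC39B mRNA quantified by real-time PCR, normalized to RIBOGREEN total RNA, as % inhibition versus untreated cells.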

murine TTC39B mRNA [3] = experiment: Dose-dependent antisense inhibition of murine TTC39B in mouse primary hepatocytes (Example 3); assay type: cell-based; details: cytofectin, ~16 h
Protocol: Cells were plated at a density of 10,000 cells per well and transfected using cytofectin reagent with 6.25 nM, 12.5 nM, 25 nM, 50 nM, 100 nM, and 200 nM concentrations of antisense oligonucleotide, as specified in Table 4. After a treatment period of approximately 16 hours, RNA was isolated from the cells and TTC39B mRNA levels were measured by quantitative real-time PCR. Murine primer probe set mTtc39b_LTS00287 was used to measure mRNA levels. TTC39B mRNA levels were adjusted according to total RNA content, as measured by RIBOGREEN®. Results are presented as percent inhibition of TTC39B, relative to untreated control cells.

apoA1 mRNA = apoA1 mRNA levels in C57BL/6 mice after TTC39B inhibition; assay type: in vivo, mouse; details: 50 mg/kg/week, 6 weeks
Protocol: (§1) Four groups of five mice each were injected twice a week with 25 mg/kg (totaling 50 mg/kg/week) of ISIS 447114, ISIS 447118, ISIS 447143, or ISIS 447144 for 6 weeks. A control group of five mice was injected with phosphate buffered saline (PBS) twice a week for 6 weeks. Plasma samples were obtained before the start of treatment, at week 3 and at week 6. At the end of the treatment period, mice were fasted for 4 hours before being euthanized. Plasma and tissue samples were obtained for further analysis.
(§2) The effect of inhibition of TTC39B in mice on these proteins of reverse cholesterol transport was studied. RNA levels of ABCA1 were measured using murine primer probe set RTS1204 (forward sequence […], designated herein as SEQ ID NO: 97; reverse sequence […], designated herein as SEQ ID NO: 98; and probe sequence […], designated herein as SEQ ID NO: 99). RNA levels of apoA1 were measured using murine primer probe set RTS14737 (forward sequence […], designated herein as SEQ ID NO: 100; reverse sequence […], designated herein as SEQ ID NO: 101; and probe sequence […], designated herein as SEQ ID NO: 102). RNA levels of SRB1 were measured using murine primer probe set mSRB-1 (forward sequence […], designated herein as SEQ ID NO: 103; reverse sequence ATGCGACTTGTCAGGCTGG, designated herein as SEQ ID NO: 104; and probe sequence […], designated herein as SEQ ID NO: 105).

ABCA1 mRNA = ABCA1 mRNA levels in C57BL/6 mice after TTC39B inhibition; assay type: in vivo, mouse; details: 50 mg/kg/week, 6 weeks
Protocol: as §1, §2

[4] = Liver function: plasma transaminases (ALT, AST) in C57BL/6 mice; assay type: in vivo, mouse
Protocol: as §1
To evaluate the impact of ISIS oligonucleotides on the hepatic function of the mice described above, plasma concentrations of transaminases were measured using an automated clinical chemistry analyzer (Olympus Clinical Analyzer). Measurements of alanine transaminase (ALT) and aspartate transaminase (AST) are expressed in IU/L. The results are presented in Tables 19 and 20 and indicate that the oligonucleotides were well tolerated.

[5] = Week 0 (before treatment), 50 mg/kg/week

| Sequence | % inhibition of murine TTC39B mRNA (murine TTC39B mRNA [1]) | percent inhibition of TTC39B mRNA (murine TTC39B mRNA [2]; 25 nM) | percent inhibition of TTC39B mRNA (murine TTC39B mRNA [2]; 50 nM) | percent inhibition of TTC39B mRNA (murine TTC39B mRNA [2]; 100 nM) | percent inhibition of TTC39B mRNA (murine TTC39B mRNA [2]; 200 nM) | percent inhibition of TTC39B mRNA (murine TTC39B mRNA [3]; 6.25 nM) | percent inhibition of TTC39B mRNA (murine TTC39B mRNA [3]; 12.5 nM) | percent inhibition of TTC39B mRNA (murine TTC39B mRNA [3]; 25.0 nM) | percent inhibition of TTC39B mRNA (murine TTC39B mRNA [3]; 50.0 nM) | percent inhibition of TTC39B mRNA (murine TTC39B mRNA [3]; 100.0 nM) | percent inhibition of TTC39B mRNA (murine TTC39B mRNA [3]; 200.0 nM) | apoA1 mRNA levels (effect of TTC39B inhibition) (apoA1 mRNA) | abcA1 mRNA levels (effect of TTC39B inhibition) (ABCA1 mRNA) | ALT levels [4, 5] | AST levels [4, 5] | ALT levels ([4]; Week 3, 50 mg/kg/week) | AST levels ([4]; Week 3, 50 mg/kg/week) | ALT levels ([4]; Week 6, 50 mg/kg/week) | AST levels ([4]; Week 6, 50 mg/kg/week) | apoA1 mRNA levels (effect of TTC39B inhibition) (apoA1 mRNA; 50 mg/kg) | other results |
| --- | --- | --- | --- | --- | --- | --- | --- | --- | --- | --- | --- | --- | --- | --- | --- | --- | --- | --- | --- | --- | --- |
| CGGATGATTCTTGCTGGTAA (antisense e[5mC]*eG*eG*eA*eT*dG*dA*dT*dT*d[5mC]*dT*dT*dG*d[5mC]*dT*eG*eG*eT*eA*eA) [ISIS 447114] | 73% | 42% | 70% | 85% | 92% | 6% | 5% | 34% | 71% | 90% | 93% | −14 | −18 | 46 IU/L | 83 IU/L | 21 IU/L | 29 IU/L | 40 IU/L | 93 IU/L | – | – |
| GCAGCTCGATTCGGGCATGA (antisense eG*e[5mC]*eA*eG*e[5mC]*dT*d[5mC]*dG*dA*dT*dT*d[5mC]*dG*dG*dG*e[5mC]*eA*eT*eG*eA) [ISIS 447118] | 76% | 49% | 65% | 74% | 82% | 0% | 24% | 45% | 66% | 77% | 81% | −23 | −2 | 29 IU/L | 88 IU/L | 39 IU/L | 39 IU/L | 50 IU/L | 127 IU/L | – | – |
| GCCACCAGTGCCTGCTGAGC (antisense eG*e[5mC]*e[5mC]*eA*e[5mC]*d[5mC]*dA*dG*dT*dG*d[5mC]*d[5mC]*dT*dG*d[5mC]*eT*eG*eA*eG*e[5mC]) [ISIS 447143] | 74% | 36% | 71% | 79% | 91% | 7% | 25% | 44% | 72% | 88% | 94% | – | −17 | 32 IU/L | 50 IU/L | 31 IU/L | 31 IU/L | 45 IU/L | 73 IU/L | average increase | apoA1 mRNA levels (effect of TTC39B inhibition) (apoA1 mRNA; listed as 447143, 50 mg/kg): +1 |
| TATTTCTATAGCTCATGACA (antisense eT*eA*eT*eT*eT*d[5mC]*dT*dA*dT*dA*dG*d[5mC]*dT*d[5mC]*dA*eT*eG*eA*e[5mC]*eA) [ISIS 447144] | 69% | 37% | 69% | 74% | 84% | – | – | – | – | – | – | – | 0 | 28 IU/L | 67 IU/L | 21 IU/L | 31 IU/L | 69 IU/L | 113 IU/L | average increase | apoA1 mRNA levels (effect of TTC39B inhibition) (apoA1 mRNA; listed as 447144, 50 mg/kg): +50 |
